According to PubChem BioAssay (NCI):
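Each compound was tested at five concentrations against cells in 96-well plates for 48 hours. TGI: total growth inhibition.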

What was measured:
Test in all cases: NCI anticancer screen, dose series, 48 h
[1] = tested on: OVCAR-8 ovarian
[2] = tested on: SK-MEL-2 melanoma
[3] = tested on: SK-MEL-28 melanoma
[4] = tested on: M14 melanoma
[5] = tested on: CAKI-1 renal
[6] = tested on: NCI-H460 lung
[7] = tested on: MDA-N
[8] = tested on: HCT-15 colon
[9] = tested on: NCI-H23 lung
[10] = tested on: HS 578T breast
[11] = tested on: SF-539 CNS
[12] = tested on: 786-0 renal
[13] = tested on: OVCAR-4 ovarian
[14] = tested on: MDA-MB-435
[15] = tested on: MCF7 breast
[16] = tested on: K-562 leukemia
[17] = tested on: T-47D breast
[18] = tested on: SF-268 CNS
[19] = tested on: SR leukemia

| SMILES | TGI [1] | TGI [2] | TGI [3] | TGI [4] | TGI [5] | TGI [6] | TGI [7] | TGI [8] | TGI [9] | TGI [10] | TGI [11] | TGI [12] | TGI [13] | TGI [14] | TGI [15] | TGI [16] | TGI [17] | TGI [18] | TGI [19] |
| --- | --- | --- | --- | --- | --- | --- | --- | --- | --- | --- | --- | --- | --- | --- | --- | --- | --- | --- | --- |
| O=C(C1OC1c1ccc(Cl)cc1)C12CC3CC(CC(C3)C1)C2 (stereo unspecified) | 32.9 µM | 43.6 µM | 32.5 µM | 38.1 µM | 67.5 µM | 31.8 µM | 36.6 µM | 82 µM | 38.4 µM | 73.9 µM | 32.5 µM | 30.7 µM | 40 µM | 33.1 µM | 73.9 µM | 51.2 µM | > 100 µM | 53 µM | – |
| CCCCS(=O)(=O)CCC(N)P(=O)(O)O (stereo unspecified) | > 100 µM | > 100 µM | > 100 µM | > 100 µM | > 100 µM | > 100 µM | > 100 µM | > 100 µM | > 100 µM | > 100 µM | – | > 100 µM | > 100 µM | > 100 µM | > 100 µM | > 100 µM | > 100 µM | > 100 µM | > 100 µM |
| Cc1ccc(Cc2n[nH]c(=O)[nH]2)cc1 | > 100 µM | > 100 µM | > 100 µM | > 100 µM | > 100 µM | > 100 µM | > 100 µM | > 100 µM | > 100 µM | > 100 µM | > 100 µM | > 100 µM | > 100 µM | > 100 µM | > 100 µM | > 100 µM | > 100 µM | – | > 100 µM |
| CCCN(CCC)CCc1ccc(OC2=CCN(C)CC2)cc1 | > 100 µM | > 100 µM | 91.7 µM | 29.1 µM | > 100 µM | – | > 100 µM | > 100 µM | > 100 µM | > 100 µM | – | > 100 µM | > 100 µM | > 100 µM | > 100 µM | > 100 µM | > 100 µM | > 100 µM | 81.7 µM |
| Nc1ncc(Br)c(NCC2(CO)CCC2)n1 | > 100 µM | > 100 µM | > 100 µM | – | > 100 µM | > 100 µM | > 100 µM | > 100 µM | > 100 µM | > 100 µM | > 100 µM | > 100 µM | > 100 µM | > 100 µM | > 100 µM | > 100 µM | 63.4 µM | > 100 µM | > 100 µM |
| COc1cccc(-c2nc3ccccc3c(=O)[nH]2)c1 | > 100 µM | > 100 µM | 96.6 µM | > 100 µM | 37.1 µM | 42 µM | 36.9 µM | 51.6 µM | > 100 µM | 47.9 µM | 50.3 µM | 28.1 µM | – | 28.1 µM | 43.1 µM | > 100 µM | 50.5 µM | 44.8 µM | > 100 µM |
| O=C1NC(N/N=C/C(O)C(O)C(O)C(O)CO)=N/C1=C\c1ccco1 (stereo unspecified) | > 100 µM | > 100 µM | > 100 µM | > 100 µM | > 100 µM | > 100 µM | > 100 µM | > 100 µM | > 100 µM | > 100 µM | > 100 µM | > 100 µM | > 100 µM | > 100 µM | > 100 µM | > 100 µM | > 100 µM | > 100 µM | – |
| CC1OC(OC2C(O[C@H]3CC[C@@H]4C(=CC[C@@H]5[C@@]4(C)C(=O)C[C@]4(C)[C@@H]([C@H](C)CC[C@@H](O)C(C)(C)O)CC[C@@]54C)C3(C)C)OC(CO)C(O)C2O)C(O)C(O)C1O (stereo partly specified) | > 100 µM | > 100 µM | > 100 µM | > 100 µM | > 100 µM | > 100 µM | > 100 µM | > 100 µM | > 100 µM | > 100 µM | > 100 µM | > 100 µM | > 100 µM | > 100 µM | > 100 µM | > 100 µM | > 100 µM | > 100 µM | – |
| CN(C)CCNc1ccc([N+](=O)[O-])c2sc3ccccc3c(=O)c12 | 19.9 µM | 27.9 µM | 21.5 µM | 46.8 µM | – | 7.49 µM | 21.6 µM | 23.6 µM | 29.5 µM | 38.8 µM | 13.7 µM | 20.8 µM | 9.27 µM | 27.4 µM | 15.2 µM | > 100 µM | > 100 µM | 48.8 µM | 22.9 µM |
| Cc1ccc(N=N/C(=N/NC(=O)c2cc(Cl)ccc2O)c2ccc(N(CCC#N)CCC#N)cc2C)cc1 | 54.7 µM | 68.4 µM | – | > 100 µM | > 100 µM | 68.8 µM | > 100 µM | > 100 µM | 55.9 µM | 46.4 µM | 46.4 µM | > 100 µM | 97.7 µM | > 100 µM | > 100 µM | > 100 µM | 56.2 µM | > 100 µM | > 100 µM |
| NC1c2c(Br)sc(N3CCCC3)c2C(=O)C1O (stereo unspecified) | > 50 µM | > 50 µM | – | > 50 µM | > 50 µM | > 50 µM | > 50 µM | > 50 µM | > 50 µM | > 50 µM | > 50 µM | > 50 µM | > 50 µM | > 50 µM | > 50 µM | > 50 µM | > 50 µM | > 50 µM | – |
| CN1Cc2ccccc2S(=O)(=O)n2cccc2C1=O | – | > 100 µM | > 100 µM | – | > 100 µM | > 100 µM | > 100 µM | > 100 µM | – | > 100 µM | > 100 µM | > 100 µM | > 100 µM | > 100 µM | > 100 µM | > 100 µM | > 100 µM | – | > 100 µM |
